Results: PMC10478957 (Biochemistry, 2023)

Columns and labels:
BtNosP [1] = target: BtNosP (Burkholderia thailandensis, UniProt Q2T7C0); test: biochemical; assay type: binding
BtNosP [2] = target: T1, BtNosP (Burkholderia thailandensis, UniProt Q2T7C0); assay type: binding
T1 sequence (Q2T7C0 1-386): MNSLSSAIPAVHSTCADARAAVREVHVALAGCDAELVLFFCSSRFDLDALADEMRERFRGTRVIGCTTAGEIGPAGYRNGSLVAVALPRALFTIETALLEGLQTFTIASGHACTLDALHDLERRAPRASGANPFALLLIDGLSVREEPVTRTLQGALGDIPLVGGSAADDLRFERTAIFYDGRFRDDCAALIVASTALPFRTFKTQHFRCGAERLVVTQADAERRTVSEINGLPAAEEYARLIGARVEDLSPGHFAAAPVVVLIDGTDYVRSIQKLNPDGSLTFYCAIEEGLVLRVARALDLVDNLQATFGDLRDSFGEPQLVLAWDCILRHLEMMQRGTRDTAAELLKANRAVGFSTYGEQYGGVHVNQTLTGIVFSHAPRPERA

C=CC1=C(C)C2=Cc3c(C=C)c(C)c4[n]3[Fe]([Cl])[n]3c(c(C)c(CCC(=O)O)c3=CC3=NC(=C4)C(C)=C3CCC(=O)O)=CC1=N2 [hemin]
Kd (BtNosP [1]): 530 ± 120 nM

[N]=O [nitric oxide]
UV-vis spectroscopy of Fe(II)-NO complex; CO/dithionite trap NO dissociation rat (BtNosP [2]): (1.73 ± 0.6) × 10^−4 s^−1
